This test addresses T1, human HSL (Homo sapiens, UniProt Q05469).
T1 construct: overlapping PCR to generate a full length human HSL ORF with a 3′-His6 tag; His6 (C); made in house; host or cells: High 5 insect cells (baculovirus, pFast-BAC)
T1 sequence (Q05469 1-1076): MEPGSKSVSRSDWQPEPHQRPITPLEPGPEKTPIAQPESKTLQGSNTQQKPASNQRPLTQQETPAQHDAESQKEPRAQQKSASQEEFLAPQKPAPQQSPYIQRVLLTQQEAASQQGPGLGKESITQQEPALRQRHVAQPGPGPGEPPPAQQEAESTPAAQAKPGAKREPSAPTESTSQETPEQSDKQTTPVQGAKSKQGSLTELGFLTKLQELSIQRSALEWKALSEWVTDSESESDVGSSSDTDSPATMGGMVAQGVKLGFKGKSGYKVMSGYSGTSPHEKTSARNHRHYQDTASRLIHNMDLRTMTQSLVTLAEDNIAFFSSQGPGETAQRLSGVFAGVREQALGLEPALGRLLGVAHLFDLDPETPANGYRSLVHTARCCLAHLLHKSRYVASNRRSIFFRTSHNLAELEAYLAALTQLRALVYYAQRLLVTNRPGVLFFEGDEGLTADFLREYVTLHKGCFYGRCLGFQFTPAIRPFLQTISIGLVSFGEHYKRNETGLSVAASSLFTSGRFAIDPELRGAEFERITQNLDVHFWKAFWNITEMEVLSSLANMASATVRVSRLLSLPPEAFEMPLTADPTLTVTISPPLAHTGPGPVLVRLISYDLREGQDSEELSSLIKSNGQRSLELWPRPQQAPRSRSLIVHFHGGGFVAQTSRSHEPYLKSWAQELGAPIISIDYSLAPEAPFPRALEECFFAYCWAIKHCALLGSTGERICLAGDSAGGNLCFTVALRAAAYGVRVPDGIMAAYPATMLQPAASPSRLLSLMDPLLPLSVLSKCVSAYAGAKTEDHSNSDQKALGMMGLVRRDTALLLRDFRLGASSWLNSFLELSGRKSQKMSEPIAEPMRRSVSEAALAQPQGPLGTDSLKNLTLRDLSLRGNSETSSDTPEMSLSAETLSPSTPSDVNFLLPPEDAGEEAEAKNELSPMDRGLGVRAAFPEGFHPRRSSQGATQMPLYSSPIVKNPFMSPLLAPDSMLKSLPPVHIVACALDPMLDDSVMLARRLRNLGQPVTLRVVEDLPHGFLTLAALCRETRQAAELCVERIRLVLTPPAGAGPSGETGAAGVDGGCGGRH
Nature of the test: Human Hormone-Sensitive Lipase (HSL) enzyme inhibition assay (colorimetric, DMPT substrate). The class given is biochemical. Particulars: human full length HSL-His6, 2,3-dimercapto-1-propanol tributyrate substrate, 37° C. 20 minutes, absorbance at 405 nm; read-out: HSL hum IC50.
Usually IC50 stands for the point on the concentration scale where inhibition reaches its midpoint. As for `O=C(CN1CCC2(CC1)CCN(c1ccc(C3CC3)cc1)C2=O)N1CCCC1` [Example 14, 2-(4-Cyclopropyl-phenyl)-8-(2-oxo-2-pyrrolidin-1-yl-ethyl)-2,8-diaza-spiro[4.5]decan-1-one], the IC50 stood at 0.22 µM.

On to `CCCCNC(=O)C(C(C)C)N1CCC2(CCN(c3ccc(C4CC4)cc3)C2=O)CC1` (centres unmarked) [Example 31, N-Butyl-2-[2-(4-cyclopropyl-phenyl)-1-oxo-2,8-diaza-spiro[4.5]dec-8-yl]-3-methyl-butyramide], for which the IC50 was found to be 0.02 µM.

On to `O=C1N(c2ccc(C3CC3)cc2)CCC12CCN(CC(O)c1ccc(Cl)c(Cl)c1)CC2` (centres unmarked) [Example 37, 2-(4-Cyclopropyl-phenyl)-8-[2-(3,4-dichloro-phenyl)-2-hydroxy-ethyl]-2,8-diaza-spiro[4.5]decan-1-one], for which the concentration for half-maximal inhibition (IC50) was determined as 0.03 µM.

As for `CN(Cc1ccccc1)C(=O)CCN1CCC2(CC1)CCN(c1ccc(C3CC3)cc1)C2=O` [Example 21, N-Benzyl-3-[2-(4-cyclopropyl-phenyl)-1-oxo-2,8-diaza-spiro[4.5]dec-8-yl]-N-methyl-propionamide], the half-inhibitory concentration (IC50) came to 0.09 µM.

On to `O=C1N(c2ccc(OCC(F)(F)F)cc2)CCC12CCN(CC(O)c1ccc(Cl)cc1Cl)CC2` (centres unmarked) [Example 44, 8-[2-(2,4-Dichloro-phenyl)-2-hydroxy-ethyl]-2-[4-(2,2,2-trifluoro-ethoxy)-phenyl]-2,8-diaza-spiro[4.5]decan-1-one], for which the half-inhibitory concentration (IC50) is 0.026 µM.

The record behind these values is patent publication US8389539B2, “Azacyclic derivatives” (Hoffman-La Roche Inc., priority 2009, dated 2013).
